The record followed here is US12178885B2, “Method for mediating targeted delivery of a composition to the brain of a subject in need thereof” (Fudan University, priority 2018, dated 2024).

For one data set, the system named is orthotopic U87 glioma. Nature of the data set: anti-glioma efficacy: median survival time of orthotopic tumor model mice. It counts as in vivo, nude mice. The settings on record: tail vein, adriamycin 2 mg/kg per injection, days 7, 9, 11, 13, 15; saline group 27 days. The method, then:
By injecting SP modified delivery system, unmodified polypeptide delivery system, free drug and normal saline into nude mice bearing orthotopic U87 glioma model via tail vein, the anti-tumor effect of SP modified delivery system in vivo is evaluated with the median survival time, apoptosis of tumor tissue and neovascularization density as indicators.
Establishment of glioma model in nude mice: Took U87 cells in logarithmic growth phase, digested and counted the cells, suspended them with appropriate amount of PBS buffer, inoculated 6×10^5 cells (dispersed in 5 μL PBS buffer) to each nude mouse. The nude mice was anesthetized with 7% chloral hydrate before the experiment, fixed with a brain stereotactic instrument, and inoculated the suspended cells to the striatum (i.e. 0.6 mm forward, 1.8 mm to the right, and 3 mm deep of the anterior fontanelle). Regularly observed the state of nude mice after operation.
Nude mice with orthotopic brain tumor model were randomly divided into 4 groups (n=13), and their body weight was recorded on the 7th, 9th, 11th, 13th and 15th day, respectively.

The test system of another data set is SP antibody. Nature of the data set: competition ELISA for binding of SP antibody to SP fixed on 96-well plate. The settings on record: without plasma incubation. The method, then:
The specific operation was as follows: 0.1 μg SP-PEG-DSPE was added to each well of ELISA plate, left overnight at room temperature, washed with PBS for 3 times, sealed with 3% BSA for 1 h, and the BSA solution was sucked off Added SP antibody, incubated at 37° C. for 1 h, washed with PBS for three times, added liposome incubated with serum or PBS in advance and diluted in gradient, incubated at 37° C. for 1 h, washed with PBS for three times, added corresponding horseradish peroxidase labeled secondary antibody, reacted with TMB chromogenic solution for 3-15 min after 1 h, stopped the reaction with 2 M H2SO4, and measured its absorbance value at 450 nm wavelength.

A further data set deals with neural cell line PC12. The settings on record: gradient concentration of SP co-cultured with PC12. An excerpt: Safety evaluation: The gradient concentration of SP was co-cultured with nerve cell line PC12 to evaluate its cytotoxicity in vitro. At the same time, the heart, liver, spleen, lung and kidney tissues of mice in the pharmacodynamic test of orthotopic tumor were dissected and fixed in PBS solution of 4% paraformaldehyde, paraffin-embedded sections were made, stained with HE, observed and photographed under a microscope. the experimental results are shown in FIG. 10.

Peptide text beside a SMILES is read from it.

In the data set with orthotopic U87 glioma, `COc1cccc2c1C(=O)c1c(O)c3c(c(O)c1C2=O)C[C@@](O)(C(=O)CO)C[C@@H]3O[C@H]1C[C@H](N)[C@H](O)[C@H](C)O1` [DOX, adriamycin] registered a median survival time of 31 days. In the case of `CC[C@H](C)[C@H](NC(=O)[C@H](C)NC(=O)CNC(=O)[C@H](CCCCN)NC(=O)[C@H](CC(N)=O)NC(=O)[C@H](CO)NC(=O)CN)C(=O)N[C@H](C(=O)NCC(=O)N[C@@H](CC(C)C)C(=O)N[C@@H](CCSC)C(N)=O)[C@@H](C)CC` [SP] (H-GSNKGAIIGLM-NH2), the “competition for interaction between SP and antibody” value in the data set on SP antibody was “can compete for the interaction between SP and antibody”. Besides, the cytotoxicity entry with neural cell line PC12 was “did not show cytotoxicity”.
